Consider 1 compound from patent US11813362B2, “Film-coated tablet comprising a triazine derivative for use in the treatment of diabetes” (Poxel, priority 2018, dated 2023).

Structures are written as SMILES.

This data set in a line: Compatibility tests of imeglimin with excipients as 50:50 (w/w) binary mixture. Format: physicochemical. The source says:
In a preferred embodiment, the binder consists of hydroxypropylcellulose. In other embodiments, it may comprise at least one other binder in addition to hydroxypropylcellulose, which may be selected from: microcrystalline cellulose, methylcellulose, ethylcellullose, hydroxyethylcellulose, hydroxypropylmethylcellulose (hypromellose), sodium carboxymethylcellulose (carmellose), gelatin, gum arabic, dextrin, maltodextrin, pregelatinized starch, gelatin, acacia gum, guar gum, sodium alginate, alginic acid, carbomer, polyvinyl alcohol and mixtures thereof. […] The binder(s) may represent from 1.5 to 4.5 wt. %, preferably from 3.5 to 4.5 wt. %, relative to the total weight of the tablet.
In addition to the binder(s), the tablet of this invention comprises at least one disintegrant. […] The disintegrant may thus be selected from the group consisting of: sodium croscarmellose, sodium carboxymethyl starch, hydroxypropylcellulose, calcium carboxymethylcellulose, microcrystalline cellulose, calcium carbonate, magnesium aluminum silicate, sodium starch glycolate, pregelatinized starch, sodium alginate, alginic acid, guar gum and their mixtures, for instance. Preferably, the disintegrant comprises, or preferably is, sodium croscarmellose. The disintegrant(s) may represent from 1.5 to 3 wt. %, preferably from 1.8 to 2.2 wt. %, relative to the total weight of the tablet.

Consider `C[C@@H]1NC(=N)N=C(N(C)C)N1.Cl` [imeglimin, (+)-2-amino-3,6-dihydro-4-dimethylamino-6-methyl-1,3,5-triazine hydrochloride], for which the “formation of degradation products (compatibility)” value was “degradation products are formed” (50:50 (w/w) binary mixture with crospovidone) and “degradation products are formed” (50:50 (w/w) binary mixture with polyvinylpyrrolidone (povidone)).
